Numbering of substitutions follows the chain as printed.
Columns and labels:
P2X2 receptor H319K = biological target: T1, P2X2 receptor H319K (Rattus norvegicus, UniProt P49653, H319K); assay: whole-cell and single-channel (cell-attached) patch-clamp, fast ATP jumps, global kinetic fit; format: cell-based
T1 construct: gene P2rx2; rat P2X2 H319K in HEK293 (Flp-In T-REx 293) cells
T1 sequence (P49653 1-472 H319K): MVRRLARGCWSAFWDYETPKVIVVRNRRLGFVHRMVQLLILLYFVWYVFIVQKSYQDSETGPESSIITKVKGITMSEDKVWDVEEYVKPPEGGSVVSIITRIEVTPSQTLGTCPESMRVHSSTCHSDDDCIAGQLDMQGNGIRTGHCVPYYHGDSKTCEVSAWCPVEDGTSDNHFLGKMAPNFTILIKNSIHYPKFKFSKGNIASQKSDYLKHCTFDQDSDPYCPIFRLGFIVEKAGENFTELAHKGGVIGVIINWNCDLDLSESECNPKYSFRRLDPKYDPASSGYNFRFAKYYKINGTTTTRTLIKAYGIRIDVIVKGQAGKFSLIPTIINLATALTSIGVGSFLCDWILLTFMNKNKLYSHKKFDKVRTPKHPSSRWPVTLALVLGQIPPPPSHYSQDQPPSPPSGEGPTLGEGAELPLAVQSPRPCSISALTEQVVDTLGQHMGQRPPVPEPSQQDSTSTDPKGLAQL

P2X2 receptor = biological target: T2, P2X2 receptor (Rattus norvegicus, UniProt P49653); assay: as above; format: cell-based
T2 construct: gene P2rx2; wild type rat P2X2 in HEK293 (Flp-In T-REx 293) cells
T2 sequence (P49653 1-472): T1 sequence (P49653 1-472 H319K) with K319H

**Q.** For `Nc1ncnc2c1ncn2[C@@H]1O[C@H](COP(=O)(O)OP(=O)(O)OP(=O)(O)O)[C@@H](O)[C@H]1O` [ATP], which EC50 (P2X2 receptor H319K) is on record?
**A.** Its EC50 is ~ 30 nM.

**Q.** And the EC50 (P2X2 receptor)?
**A.** Its EC50 is 1.2 µM.

Source: PMC7729398, “Unravelling the intricate cooperativity of subunit gating in P2X2 ion channels” (Scientific Reports, 2020)
